Measured values taken from patent US20060205640A1, “Papillosin antimicrobial peptide, a gene coding said peptide, a vector, a transformed organism and a compound containing said organism” (priority 2003, published 2006).
No end group written: not given here.

How the values were obtained:
S. aureus = type: cell-based; details: gram-positive bacteria, 18 hours incubation, Mueller Hinton
Protocol: (§1) Complementary tests were carried out in order to determine the spectrum of activity of papillosin. The minimal bactericidal concentration (MBC) for each bacterial strain tested is determined as follows: The peptide is placed in a solution containing 0.01% acetic acid and 0.2% bovine serum albumin (BSA), then, serial dilutions of 2 in [sic—and?] 2 are realized in the same 0.01% solution of acetic acid and 0.2% BSA. 10 μl of each dilution are incubated in sterile 96-well plates (Becton Dickinson, USA, ref: 18572) in the presence of 100 μl of a bacterial suspension brought to an optical density of 0.001 at 600 nm in the Mueller Hinton environment (MHB, SIGMA, ref: M-9677).
(§2) The bacterial growth is monitored after 18 hours of incubation under agitation. The MBC is determined by spreading out the content of the first three wells in which no bacterial growth was observed; this spreading out was carried out on Petri dishes on which an agar was poured prepared from the Mueller Hinton environment. These dishes were then incubated 18 hours. The MBC corresponds to the lowest concentration of peptide for which no bacterial colony was observed on the incubated dishes.

E. coli = type: cell-based; details: gram-negative bacteria, 18 hours incubation, Mueller Hinton
Protocol: as §1, §2

GFWKKVGSAAWGGVKAAAKGAAVGGLNALAKHIQ [papillosin]
MBC (S. aureus): 0.5 to 1 µM
MBC (E. coli): 0.25 to 0.5 µM
